In paper PMC8764113 (Nature Communications, 2022):
Like-named read-outs stand apart in the source and are kept apart here.

Legend:
[1] = target: wild type PECPS (Aquilaria sinensis, UniProt A0A385MEG6); assay: ITC binding to wild type PECPS; settings: mean ± SD (n = 3)
Method: (§1) ITC measurements of affinity (KD), stoichiometry (n) and apparent enthalpy change (ΔH°) were obtained using a Nano LV ITC calorimeter (TA Instruments). Samples for cell and injectant solutions were prepared in the same buffer (100 mM KPB, pH 7.5). All experiments were conducted at 37 °C with a stirring speed of 240 rpm and a sequence of 20 injections of 2.5 μL and 380 s delays between succeeding injections. The sample cell was filled with 47–85 μM protein solution (300 μl), while 1.09 mM 4-hydroxyphenylpropionyl-CoA (or 1.15 mM benzoyl-CoA) solution was placed in the syringe. The resulting data were processed with the standard NanoAnalyze software package (version 3.11.0), assuming the model of one type of binding site with an apparent stoichiometry close to 1:1. The first injection resulting in a heat change was disregarded in the later analysis. Titration experiments were performed in triplicate to show reproducibility. Control experiments confirmed that the heats of dilution caused by the reactant being titrated into buffer and the buffer into protein solution were negligible. The heats of dilution for the sample in the cell were subtracted from the final trace before integration with respect to time. The thermodynamic data obtained from the traces were averaged across three runs, and a standard deviation was calculated. Representative ITC thermograms and isotherm plots for experiments can be found in Supplementary Fig. 35.

[2] = test system: PECPS; assay: Standard PECPS enzyme reaction, acceptance of starter-CoA; assay type: biochemical, Aquilaria sinensis; settings: condensation with 4-hydroxyphenylpropionyl-β-diketide acid
Method: The standard reaction mixture contained 26 nmol of starter-CoA (4-hydroxyphenylpropionyl-CoA/benzoyl-CoA/phenylpropionyl-CoA/2-hydroxybenzoyl-CoA/3-hydroxybenzoyl-CoA/4-hydroxybenzoyl-CoA), 29 nmol of malonyl-CoA/benzoyl-β-diketide acid/4-hydroxyphenylpropionyl-β-diketide acid (note: before β-diketide acids were added to the reaction buffer, they were first dissolved in dimethyl sulfoxide to a final concentration of 2.9 mM), and 0.4 nmol of the purified recombinant enzyme, in 100 mM KPB (pH 7.5) for a final volume of 500 μL. Incubations were performed at 37 °C for 12 h and terminated by the addition of 20 μL of 20% HCl. The reaction solution was then extracted three times with 800 μL of ethyl acetate. The organic layers were combined, evaporated to dryness with nitrogen, and dissolved in 50 μL of MeOH for LCMS-IT-TOF (Shimadzu, Japan) analysis. The HPLC was equipped with an Agilent Eclipse XDB C18 column (250 × 4.6 mm I.D., 5 μm) and eluted at a flow rate of 1.0 mL/min. For the standard assay, gradient elution was performed with H2O and acetonitrile: 0–10 min, 30% acetonitrile; 10–20 min, 30–60% acetonitrile; 20–25 min, 60–70% acetonitrile; 25–30 min, 70–80% acetonitrile; 30–35 min, 80–100% acetonitrile; 35–40 min, 100% acetonitrile.

[3] = test system: wild type N. benthamiana leaves; assay: Infiltration of C6-C5-C6 substrates into wild type N. benthamiana leaves, LC-MS; assay type: in vivo, Nicotiana benthamiana
[4] = target: 2-(2-phenylethyl)chromone precursor synthase (PECPS), wild type, recombinant (Aquilaria sinensis); assay: SEC; purified recombinant PECPS; approximately 86 kDa against a calculated 43 kDa for the monomer (Supplementary Fig. 4b); column and buffer of this run not told
[5] = test system: PECPS protein expression in A. sinensis calli; settings: 150 mM NaCl-treated calli
Method: GAPDH was used as internal reference. d Western blot quantification of the relative expression levels of PECPS by ImageJ and normalization to the protein levels of GAPDH. Data represent the mean ± SD (n = 3). Statistical analysis was performed with unpaired two-tailed Student’s t-tests. Significance is shown with asterisks: ****p < 0.0001, ***p < 0.001, **p < 0.01. Exact p-values and source data are provided in the source data file. Total protein was extracted from 100 mg of calli using Plant Total Protein Extraction Reagent (Invent, USA) according to the manufacturer’s instructions. The protein expression levels of PECPS were analyzed by Western blotting with an anti-PECPS antibody prepared in rabbits.

[6] = test system: PECPS expression in A. sinensis calli; settings: NaCl-treated calli
Method: Considering that PECs contain a phenylethyl moiety, 4-hydroxyphenylpropionyl-CoA, rather than p-coumaroyl-CoA, was deliberately selected as the starter substrate for the reaction with malonyl-CoA, a canonical chain extender for PKSs, and the recombinant PECPS. […] The construction of a C6–C5–C6 scaffold by coincubation of benzoyl-CoA, malonyl-CoA, and 4-hydroxyphenylpropionyl-CoA was attempted.

[7] = target: PECPS N199F (Aquilaria sinensis, UniProt A0A385MEG6, N199F); assay: ITC binding to PECPS N199F mutant
Method: as §1, with “Representative ITC thermograms and isotherm plots for experiments can be found in Supplementary Fig. 35.” left out

[8] = target: PECPS N199L (Aquilaria sinensis, UniProt A0A385MEG6, N199L); assay: ITC binding to PECPS N199L mutant
Method: as §1
(§2) Plasmids expressing the PECPS mutants (A210E, F340W, N199L, and N199F) were generated by the Fast Mutagenesis System ([…] BIOTECH) according to the manufacturer’s instructions, using designed primers (Supplementary Table 5). The mutant enzymes were expressed, extracted, and purified by the same procedure as that for the wild type PECPS, and used in the enzyme assay and for crystallization.

[9] = target: PECPS F340W (Aquilaria sinensis, UniProt A0A385MEG6, F340W); assay: ITC binding to PECPS F340W mutant
Method: as §1, §2

[10] = target: PECPS A210E (Aquilaria sinensis, UniProt A0A385MEG6, A210E); assay: ITC binding to PECPS A210E mutant
Method: as §1, §2

[11] = test system: NaCl-stressed A. sinensis cells; assay: Substrate feeding to NaCl-stressed A. sinensis suspension cells, LC-MS; assay type: cell-based, Aquilaria sinensis; settings: NaCl-stressed A. sinensis cells fed with substrate
Method: To verify the aforementioned hypothesis that diarylpentanoid is the common precursor of PECs, substrate-feeding experiments were performed. First, a putative innate-substrate, 5-(4-hydroxyphenyl)-1-phenylpentane-1,3-dione (2), was fed to NaCl-stressed A. sinensis cells, and its metabolites were carefully analyzed by LC–MS. […] Next, the fluorine-containing nonphysiological substrate 5-(4-F-phenyl)-1-phenylpentane-1,3-dione (F-2) was fed to NaCl-stressed A. sinensis cells. As a result, 10 fluorinated PECs (C01–C10) were successfully obtained by LC–MS guided separation and purification (Fig. 2b and Supplementary Fig. 8), and the structures of C01–C06 were unequivocally determined by extensive spectroscopic techniques, including ^1H-NMR, ^13C-NMR and HRESI-MS (Supplementary Figs. 9–14 and Supplementary Tables 2 and 3). Unfortunately, attempts to elucidate the structures of compounds C07–C10 by NMR techniques were complicated by their small yields. […]
Robustly growing suspension cells (200 mL × 10) were treated with NaCl (final concentration 150 mM) and immediately fed the fluorine-labeled substrate F-2 (20 mg × 10). […] Fluorinated PECs could be detected from the crude residue by LC–MS (Supplementary Fig. 8). […]

[12] = Non-enzymatic conversion of oxidoagarochromone C in aqueous methanol, HPLC; assay type: physicochemical; settings: methanol aqueous solution, room temperature
Method: Figure 19. […]
HPLC chromatograms were recorded on an Agilent ZORBAXSB C18 column (250 mm × 4.6 mm, I.D., 5 μm) eluted with H2O and acetonitrile in an isocratic mode (0–30 min, 30% acetonitrile; flow rate 1.0 mL/min). Oxidoagarochromone C (S) was dissolved in 50% aqueous methanol and kept at room temperature. ATC-type PECs (1–5) converted from the substrate (S) via the non-enzymatic opening of the epoxy rings were readily apparent at 12 h and 36 h. Given that the structures of compounds 1-5 were tentatively identified by HRESI MS, the presence of methyl groups in compounds 2 and 5 is also possible on other hydroxyl groups formed by the opening of the epoxy rings, and the structures of 3 and 4 may be […]

Sequence of PECPS N199L (A0A385MEG6 entry or part of it N199L): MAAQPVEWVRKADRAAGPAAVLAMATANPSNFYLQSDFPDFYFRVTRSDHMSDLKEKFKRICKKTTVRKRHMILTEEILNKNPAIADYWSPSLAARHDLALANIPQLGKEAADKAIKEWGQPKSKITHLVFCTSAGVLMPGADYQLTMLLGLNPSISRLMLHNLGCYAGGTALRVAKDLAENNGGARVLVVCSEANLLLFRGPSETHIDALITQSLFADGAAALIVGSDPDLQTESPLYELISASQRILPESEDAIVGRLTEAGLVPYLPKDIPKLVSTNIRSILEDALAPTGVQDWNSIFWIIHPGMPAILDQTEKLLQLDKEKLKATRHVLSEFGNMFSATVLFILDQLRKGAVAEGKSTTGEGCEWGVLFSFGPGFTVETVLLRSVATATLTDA
Sequence of wild type PECPS (A0A385MEG6 entry or part of it): as the sequence (A0A385MEG6 entry or part of it N199L) above, with L199N counted along it
Sequence of PECPS F340W (A0A385MEG6 entry or part of it F340W): as the sequence (A0A385MEG6 entry or part of it N199L) above, with L199N, F340W counted along it
Sequence of PECPS A210E (A0A385MEG6 entry or part of it A210E): as the sequence (A0A385MEG6 entry or part of it N199L) above, with L199N, A210E counted along it
Sequence of PECPS N199F (A0A385MEG6 entry or part of it N199F): as the sequence (A0A385MEG6 entry or part of it N199L) above, with L199F counted along it

Molecule: CC(C)(COP(=O)(O)OP(=O)(O)OC[C@H]1O[C@@H](n2cnc3c(N)ncnc32)[C@H](O)[C@@H]1OP(=O)(O)O)[C@@H](O)C(=O)NCCC(=O)NCCSC(=O)c1ccccc1 [benzoyl-CoA]
- Kd ([1]; ITC, 100 mM KPB pH 7.5, 37 °C): ~1000 µM

Molecule: CC(C)(COP(=O)(O)OP(=O)(O)OC[C@H]1O[C@@H](n2cnc3c(N)ncnc32)[C@H](O)[C@@H]1OP(=O)(O)O)[C@@H](O)C(=O)NCCC(=O)NCCSC(=O)c1cccc(O)c1 [3-hydroxybenzoyl-CoA]
- acceptance as starter by PECPS to produce the C6–C5–C6 scaffold [2]: could accept

Molecule: O=C(CCc1ccccc1)CC(=O)c1ccccc1 [1,5-diphenylpentane-1,3-dione]
- biotransformation in wild type N. benthamiana leaves [3]: converted to PECs

Molecule: 2-(2-phenylethyl)chromone precursor synthase (PECPS), wild type, recombinant (enzyme)
- stoichiometry N [4]: 2

Molecule: CC(C)(COP(=O)(O)OP(=O)(O)OC[C@H]1O[C@@H](n2cnc3c(N)ncnc32)[C@H](O)[C@@H]1OP(=O)(O)O)[C@@H](O)C(=O)NCCC(=O)NCCSC(=O)c1ccccc1O [2-hydroxybenzoyl-CoA]
- acceptance as starter by PECPS to produce the C6–C5–C6 scaffold [2]: not accepted

Molecule: [Cl-].[Na+] [NaCl]
- Relative expression level of PECPS protein (PECPS/GAPDH), Mean ([5]; 0 h): 0.2667
- Relative expression level of PECPS protein (PECPS/GAPDH), Mean ([5]; 24 h): 0.4551
- Relative expression level of PECPS protein (PECPS/GAPDH), Mean ([5]; 48 h): 1.257
- Relative expression level of PECPS protein (PECPS/GAPDH), Mean ([5]; 72 h): 1.846
- Relative expression level of PECPS protein (PECPS/GAPDH), Mean ([5]; 96 h): 1.18
- Relative expression level of PECPS (qRT-PCR), Mean ([6]; 0 h): 0.3162
- Relative expression level of PECPS (qRT-PCR), Mean ([6]; 24 h): 0.7432
- Relative expression level of PECPS (qRT-PCR), Mean ([6]; 48 h): 2.33
- Relative expression level of PECPS (qRT-PCR), Mean ([6]; 72 h): 6.264
- Relative expression level of PECPS (qRT-PCR), Mean ([6]; 96 h): 1.556

Molecule: CC(C)(COP(=O)(O)OP(=O)(O)OC[C@H]1O[C@@H](n2cnc3c(N)ncnc32)[C@H](O)[C@@H]1OP(=O)(O)O)[C@@H](O)C(=O)NCCC(=O)NCCSC(=O)CCc1ccc(O)cc1 [4-hydroxyphenylpropionyl-CoA]
- Kd [7]: ~1000 µM
- -TΔS ([1]; ITC): -3.748 ± 0.464 kcal/mol
- n (stoichiometry) ([1]; ITC): 1.10±0.12
- ΔH ([1]; ITC): -2.968 ± 0.425 kcal/mol
- ΔS ([1]; ITC): 50.56 ± 6.28 J/molꞏK
- Ka ([1]; ITC, listed as 4-hydorxyphenylpropionyl-CoA): 54.06 ± 4.14 mM⁻¹
- Kd ([1]; Supplementary Table 4, ITC): 18.6 ± 1.37 µM
- Kd [8]: 120 ± 10.8 µM
- Ka ([8]; ITC, mean ± SD (n = 3)): 8.35 ± 0.71 mM⁻¹
- n (stoichiometry) ([8]; ITC, mean ± SD (n = 3)): 0.87±0.06
- ΔG ([8]; ITC, mean ± SD (n = 3)): -5.564 ± 0.055 kcal/mol
- ΔH ([8]; ITC, mean ± SD (n = 3)): -4.708 ± 0.402 kcal/mol
- ΔS ([8]; ITC, mean ± SD (n = 3)): 11.50 ± 4.86 J/molꞏK
- binding affinity, times weaker than that of wild type PECPS ([8]; N199L vs wild type PECPS, ITC): 6.5 times
- Kd [9]: 12.4 ± 2.07 µM
- -TΔS ([9]; ITC, mean ± SD (n = 3)): -5.251 ± 0.28 kcal/mol
- Ka ([9]; ITC, mean ± SD (n = 3)): 82.07 ± 12.96 mM⁻¹
- n (stoichiometry) ([9]; ITC, mean ± SD (n = 3)): 0.91±0.06
- ΔG ([9]; ITC, mean ± SD (n = 3)): -6.969 ± 0.1 kcal/mol
- ΔH ([9]; ITC, mean ± SD (n = 3)): -1.72 ± 0.177 kcal/mol
- ΔS ([9]; ITC, mean ± SD (n = 3)): 70.83 ± 3.75 J/molꞏK
- Kd [10]: 40.1 ± 4.52 µM
- binding affinity, times lower than that of the wild-type ([10]; A210E vs wild type PECPS, ITC): 2.1 times
- -TΔS ([10]; ITC, mean ± SD (n = 3)): -2.483 ± 0.397 kcal/mol
- Ka ([10]; ITC, mean ± SD (n = 3)): 25.12 ± 2.98 mM⁻¹
- n (stoichiometry) ([10]; ITC, mean ± SD (n = 3)): 0.99±0.02
- ΔG ([10]; ITC, mean ± SD (n = 3)): -6.243 ± 0.0717 kcal/mol
- ΔH ([10]; ITC, mean ± SD (n = 3)): -3.76 ± 0.323 kcal/mol
- ΔS ([10]; ITC, mean ± SD (n = 3)): 33.49 ± 5.34 J/molꞏK

Molecule: O=C(CCc1ccc(O)cc1)CC(=O)c1ccccc1 [compound 2, 5-(4-hydroxyphenyl)-1-phenylpentane-1,3-dione]
- accumulation of PECs (P1–P5) in substrate-fed cells [11]: visibly increased
- biotransformation in wild type N. benthamiana leaves [3]: converted to PECs

Molecule: oxidoagarochromone C
- products from the opening of the epoxy ring (non-enzymatic conversion to ATC-type PECs) [12]: readily detected

Molecule: CC(C)(COP(=O)(O)OP(=O)(O)OC[C@H]1O[C@@H](n2cnc3c(N)ncnc32)[C@H](O)[C@@H]1OP(=O)(O)O)[C@@H](O)C(=O)NCCC(=O)NCCSC(=O)c1ccc(O)cc1 [4-hydroxybenzoyl-CoA]
- acceptance as starter by PECPS to produce the C6–C5–C6 scaffold [2]: could accept
